Legend:
[1] = system: chondrogenic cells in damaged articular cartilage; experiment: In vivo DNA synthesis: BrdU / Sox9 staining of damaged articular cartilage, MIA-induced OA; parameters: species or system rat
Description: (§1) Adult 10-wk-old male Sprague-Dawley rats (initial body wt=312±11 g) were anesthetized by an intraperitoneal injection of Xylazine (10 mg/kg). After that, their right knees were each treated with a single intraarticular injection of 1 mg of MIA in 25 μl of sterile saline. The solution was injected through the patellar ligament using a 27 G needle with the leg flexed at a 90° angle at the knee. Seven days after MIA injection, the […] were randomly assigned to different experimental groups (n 3, each group). For treatments of the rat model of MIA-induced OA, PDSP peptide was dissolved in 25 μl of 1% HA, and the peptide solvent DMSO was used as a vehicle/HA control.
For detection of cell proliferation, BrdU was reconstituted in DMSO as stock (80 mM). […] DNA synthesis was assessed by BrdU labeling, as detected with anti-BrdU antibodies.
To detect DNA synthesis in vivo, paraffin-embedded joint specimens were deparaffinized in xylene and rehydrated in a graded series of ethanol and then exposed to 1 N HCl at RT for 1 h for subsequent immunohistochemistry. […] Images were captured using a Zeiss epifluorescence microscope with a CCD camera and measured from 20 randomly-selected areas in each sample, and blind quantification was performed in triplicate by manually counting within each section. […]

[2] = system: MIA-damaged articular cartilage; experiment: Histological examination (H&E) of MIA-damaged articular cartilage; assay type: in vivo, rat; settings: 29-mer/HA from day 8 post-MIA for 2 weeks
Description: as §1
The knee joints were dissected, and the surrounding soft tissue was removed. Specimens were fixed in a 4% paraformaldehyde (PFA) solution and then were decalcified with Shandon TBD-2 decalcifier (Thermo Scientific, Logan, Utah). The joints were then sectioned mid-sagittally and embedded in paraffin blocks. Sections (5 μm in thickness) were longitudinally cut and stained with hematoxylin and eosin (H&E) or used for immunohistochemical examination. 20 sections per knee were carefully prepared so as to include the most severely degenerated area.
It has been established that rat knee joints injected with MIA can result in extensive chondrocyte degeneration/necrosis at day 7 post-MIA treatment in a rapid and reproducible manner. […]

[3] = system: rat model of MIA-induced OA; experiment: MIA-induced hind paw weight-bearing shift (incapacitance tester), rat OA model; assay type: in vivo; settings: for MIA-induced weight shift (hind paw weight-bearing): vehicle/HA 75.9±4.7%
Description: as §1
Changes in hind paw weight distributions between the right (osteoarthritic) and left (contralateral control) limbs were used as an index of joint discomfort in the osteoarthritic knee. An incapacitance tester was employed for determination of hind paw weight distributions, as previously described (Bove et al., Weight bearing as a measure of disease progression and efficacy of anti-inflammatory compounds in a model of monosodium iodoacetate-induced osteoarthritis. Osteoarth Cart., 2003; 11:821-830). Rats were placed in an angled plexiglass chamber positioned so that each hind paw rested on a separate force plate. The force exerted by each hind limb (measured in grams) is averaged over a 5-s period. Each data point is the mean of three, 5-s readings. The change in hind paw weight distribution was calculated by determining the difference in the amounts of weights (g) exerted on the tester between the left and right limbs. Results are presented as either the difference in weight bearing between the left (contralateral control) limb and right (osteoarthritic) limbs or as the percent difference between the baseline reading and the post-treatment reading, as calculated using the following equation:
(1−(mean Δweight of treated group/mean Δ weight of vehicle group))×(100)
To investigate whether PDSP (PEDF short peptide) has antinociceptive effects to ameliorate the joint discomfort, 10-wk-old male Sprague-Dawley rats (n=15) were subjected to intraarticular injection of 1 mg of MIA (dissolved in 25 μl of sterile saline) into right joint to induce a maximum degree of weight shift (from right to left leg) and then used to investigate the pharmacologic response of the 29-mer PDSP (SEQ ID NO:1). […]
In the animal study, the 29-mer PDSP variants were formulated into 1% HA to final a concentration of 0.2 mM and then applied by way of a single intraarticular injection each on day 1 and day 8 post-MIA injection. After 29-mer variant treatments for 14 days, the antinociceptive effects of the 29-mer variants (n=3 per group) on MIA-induced hind paw weight-bearing shifts were evaluated with an incapacitance tester.

rat MSCs = experiment: Chondrogenic differentiation of MSCs, GAG by Alcian blue staining; assay type: cell-based; settings: 10 μM peptide in medium with dexamethasone and TGF-β3, 21 days; DMSO control 0.15±0.024
Description: Adult 8-wk-old male Sprague-Dawley rats were anesthetized with an intraperitoneal injection of Xylazine (10 mg/kg). After that, their femurs were aseptically harvested, washed in a mixture of PBS and antibiotics for 5 minutes, and then they were dissected off of all soft tissue, transected at their epiphysis, and their marrow cavity rinsed repeatedly with a mixture of heparin (AGGLUTEX INJ 5000 U/ML 5 ML; working conc. 100 U/ml) and DMEM. The harvested cells were collected, dispersed by pipetting, and centrifuged at 1000×g for 5 minutes at RT. Cell pellets were resuspended with DMEM, and then the cell suspension was transferred to a 15-ml centrifuge tube containing 5 ml of Percoll (1.073 g/ml). […]
For Alcian blue staining, cultures were rinsed twice with PBS, fixed in 4% (w/v) paraformaldehyde for 15 min, and then incubated in 1% (w/v) Alcian blue 8-GX (Sigma) in 0.1 N HCl (pH 1.0) overnight as previously described (Ji Y. H. et al., Quantitative proteomics analysis of chondrogenic differentiation of C3H10T1/2 mesenchymal stem cells by iTRAQ labeling coupled with on-line two-dimensional LC/MS/MS, Mol. Cell. Proteom., 2010, 9(3): 550-564.). For semi-quantitative analysis, Alcian blue-stained cultures were extracted with 6 M guanidine HCl for 2 h at room temperature. The absorption of the extracted dye was measured at 650 nm in a microplate reader (Bio-Rad). […]

SLGAEQRTESIIHRALYYDLISSPDIHGT (in 1% hyaluronic acid; listed as Homo sapiens) [29-mer, PEDF-derived short peptide, human PEDF residues 93-121]
Sox9 immunostaining of BrdU-positive cells ([1]; 0.2 mM 29-mer/HA, dual immunostaining, FIG. 5A): BrdU-positive cells were also Sox9 positive | BrdU-positive cells per field of cartilage region ([1]; 0.2 mM peptide in 1% HA, 14 days treatment, vehicle/HA 7±3): 346±57 | Chondrocytes in cartilage, H&E histology ([2]; vehicle/HA: chondrocytes lost from superficial zone): large numbers of newly generated chondrocytes throughout the cartilage | Cartilage integrity, H&E histology ([2]; vehicle/HA: loss of cartilage integrity): good surface continuity | MIA-induced weight shift (hind paw weight-bearing) ([3]; group II: 0.2 mM 29-mer in 1% HA, intraarticular on day 1, 4, 8, 12 (twice per week), 14 days): 63.3±12.5% | MIA-induced weight shift (hind paw weight-bearing) ([3]; group III: 29-mer alone (bolus, without HA), intraarticular day 1, 4, 8, 12): 77.2±1.2% | MIA-induced weight shift (hind paw weight-bearing) ([3]; group IV: 29-mer/HA, intraarticular once on day 1 and day 8 (once per week), 14 days): 58.1±4.6% | MIA-induced hind paw weight-bearing shift ([3]; variant study (FIG. 4): 0.2 mM peptide in 1% HA, intraarticular day 1 and day 8, after 14 days, vehicle/HA 47.1±3.7%): 22.0±0.66% | Alcian blue-positive material (GAG) at OD 650 nm (rat MSCs): 0.34±0.013

Reference: patent publication US20210221862A1, “APPLICATION OF PEDF-DERIVED SHORT PEPTIDES IN THE TREATMENT OF OSTEOARTHRITIS” (BRIM Biotechnology, Inc., priority 2018, published 2021)
